According to patent US10189881B2, “MPS peptides and use thereof” (The Regents of the University of California, priority 2013, dated 2019):
“Also recorded” adds a separate entry of the source. Peptide text beside a SMILES is read from it.

Columns and labels:
[1] = tested on: H1975 cells; assay: Subcutaneous H1975 xenograft, peptide treatment; format: in vivo, nude mice; details: i.p., 28 mg/kg every three days for 7 injections
Protocol: FIGS. 14A-14F show suppressive effects of MPS peptide on cancer growth and metastasis in vivo. (A-C) Suppression of tumorigenesis by MPS peptide. Nude mice bearing subcutaneous tumors were treated for 21 days with intraperitoneal injections of PBS, Mut or MPS peptide at the dosage of 28 mg/kg/3 days. Tumor appearance and volumes were measured and data was presented as mean±SD (n=5, A). A representative photo of primary tumors from subcutaneous tissue of nude mice was shown (B, left). The tumor weights were average values from five mice per group and data were shown as mean±SE (B, right). * P<0.05 as compared with PBS group. […] Top, a representative photo of primary tumors from subcutaneous tissue of nude mice. Bottom, tumor weights are average values from six mice per group. Data were shown as mean±SE. *P<0.01 as compared to PBS-treated group. (E) Inhibition of lung cancer metastasis by MPS peptide. Dissociated PC9 cells were orthotopically injected into the left lobe of the mouse lung. […] (F) Quantification of the average pulmonary metastasis nodules from mice with injected cancer cells and treated with […] or MPS peptide as described (*P<0.05 versus PBS).
To determine the anti-cancer effect of the MPS peptide in vivo, H1975 cells were injected subcutaneously into nude mice. […] After treatment for 21 days, the animals were sacrificed to evaluated tumor weights.

[2] = tested on: MARCKS phosphorylation (Ser159/163); assay: Western blot of MARCKS phosphorylation in peptide-treated cells; format: cell-based, human; details: 100 μM peptide, 24 hours, H1650 or H1975 cells
Protocol: The levels of MARCKS phosphorylation in chemoresistant cancer cell lines after 24 hours of MPS or mutant (Mut) peptide treatment. Lysates form 100 μM MPS-or Mut peptide-treated H1650 or H1975cells were subjected to immunoblotting. The sequences of MARCKS MPS peptide consisted of amino acids 152 to 176 from the wild-type protein (SEQ ID NO: 9). The sequences of mutated MPS peptide (Mut) (SEQ ID NO: 14) had the replacement of serine residues (S) by aspartate (D) and are unable to be recognized by PKC. The underline represents the PIP2 binding site.
(§1) FIGS. 13A-13G show MPS peptide suppresses cancer cell proliferation and also induces apoptosis in these cells through direct downregulation of MARCKS activation. (A) Determination of MARCKS phosphorylation levels after 24 hours of MPS peptide treatment. Lysates from 1-100 μM MPS peptide-treated H1975 cells were subjected to western blot analysis. (B) Levels of PIP3 in drug resistant cancer cell lines after MPS peptide treatment. Cells were treated with 10, 50 or 100 μM MPS peptide. After 24 hours of treatment, PIP3 lipids were extracted from these cells and analyzed by a PIP3 ELISA kit. *P<0.05 compared with untreated cells. (C) Downregulation of AKT phosphorylation by MPS peptide treatment, but not by Mut peptide. Cells were treated with 100 μM MPS or Mut peptide for 24 hours. Lysates were immunoblotted with the indicated antibodies. (D) Cell viability analysis of six cancer cell lines and human bronchial epithelial cells (HBE1) upon MPS treatment. Cells were incubated with various concentrations of MPS peptide for 72 hours and then subjected to MTS assays. Polylysine served as a peptide control. n=4, *P<0.05 compared with untreated cells (Con). (E) Cells were treated with the indicated concentrations of MPS peptide and colonies were counted after 10 days of treatment using crystal violet staining (F) MPS treatment augments cell death. […] The percentages of apoptotic cells were quantified by flow cytometry (top), and presented as mean±SD of three experiments (bottom). *, P<0.05 versus untreated cells (Con). […]

[3] = tested on: CL1-0 cells; assay: MTS cell viability, drug treatment of mock transfected cells; format: cell-based, human; details: control mock transfected CL1-0 cells; increasing concentrations, 72 hours
Protocol: (§2) FIGS. 10A and 10B show implication of phospho-MARCKS levels in drug resistance. (A) Effects of ectopic V5-tagged PSD-mutant or wild type MARCKS expression on CL1-0 cells in response to various drug treatments. (B) Effects of MARCKS shRNA silencing on A549 cells in response to various drug treatments. Western blot analyses were carried out to determine phospho-MARCKS and total MARCKS levels in these stable cells with appropriate antibodies. The cells were subjected to various doses of cisplatin, paclitaxel, erlotinib or dasatinib for treatment, as indicated. After 72 hours of treatment, cell viability was determinate by MTS assays. Data shown as mean±SD. *P<0.05 versus mock (A; n=3); *P<0.05 versus control shRNA (B; n=4).
To determine if the MARCKS phosphorylation step can serve as a therapeutic target, Applicants evaluated whether the status of MARCKS PSD phosphorylation could alter the sensitivity of NSCLC cells to chemotherapeutic agents and tyrosine kinase inhibitors (TKIs). The V5-tagged wild-type and PSD-mutated (S159/163A) MARCKS constructs were generated and transfected into low MARCKS-expressing CL1-0 cells (FIG. 16A) (Chen, C. H. et al. (2013) Oncogene) for establishing stable clones. These stable cell lines were exposed to increasing concentrations of cisplatin, paclitaxel, erlotinib or dasatinib for 72 hours. […] These toxicities were repressed by enforced expression of V5-tagged wild type MARCKS, but not by overexpression of the S159/163A mutant.

[4] = tested on: H1650 and H1975 cells; details: 0.5 μM erlotinib alone; 48 hours
Protocol: The combinatorial effect of MPS peptide with erlotinib on cancer cell lines. Two chemoresistant lung cancer cells, H1650 (Left) and H1975 (Right) cells were respectively co-treated with various dosages of erlotinib and 50 μM MPS peptide. After 48 hours, cell viability was determinate by MTS assay. *, P<0.05.
Two erlotinib resistant cell lines, H1975 (left) and H1650 (right), were co-treated with various dosages of erlotinib and 50 μM MPS peptide. After 48 hours, cell viability was determined by MTS assay. *, P<0.05.
Cells were seeded onto 96-well plates at a density of 5-10×10^3 cells per well and cultured for the indicated treatment. Cell viability was evaluated using a MTS assay kit (Promega, Madison, Wis.). Twenty microliters of the combined MTS/PMS solution was added into each well, incubated for 3 hours at 37° C., and the absorbance was measured at 490 nm by using an ELISA reader.

[5] = tested on: cancer cell lines (H1975, HCT116, H1650, CL1-5 and others); assay: MTS cell viability assay, cancer cell lines; format: cell-based; details: H1975, HCT116, H1650 and CL1-5 cells; 72 hours; listed as MPS peptide
Protocol: Top, cells were incubated with various concentrations of MPS peptide for 72 hours and then subjected to a MTS assay for analysis of cell viability. Polyamine served as a peptide control. *, P<0.05 compared with untreated cells. The HBE1 cell line is a normal bronchial epithelial cell line. Bottom, ethnicities of the cancer cell lines used for MTS assay.
as §1, with “(C) Downregulation of AKT phosphorylation by MPS peptide treatment, but not by Mut peptide. Cells were treated with 100 μM MPS or Mut peptide for 24 hours. Lysates were immunoblotted with the indicated antibodies. (D) Cell viability analysis of six cancer cell lines and human bronchial epithelial cells (HBE1) upon MPS treatment. Cells were incubated with various concentrations of MPS peptide for 72 hours and then subjected to MTS assays. Polylysine served as a peptide control. n=4, *P<0.05 compared with untreated cells (Con).” left out

[6] = tested on: normal human bronchial epithelial cells; assay: Crystal violet staining of viable normal cells after peptide treatment; format: cell-based; details: 50 μM or various concentrations; 72 hours
Protocol: After 72 hours of peptide treatment, the number of viable cells was visualized by using crystal violet staining. A representative of three independent experiments.
(§3) After 72 hours of peptide treatment, the number of viable cells was visualized by using crystal violet staining. A representative example of three independent experiments is shown. […] Cells were incubated with various concentrations of MPS peptide for 72 hours and then subjected to MTS assays. 200 μM polyamine and aspartates-substituted mutant (Mut) peptide served as peptide controls (n=3).

[7] = Tolerability upon systemic administration; format: in vivo; details: systemic administration in mice
[8] = tested on: lung cancer cells with low phospho-MARCKS levels; assay: MTS cell viability, lung cancer cell lines with low phospho-MARCKS levels; format: cell-based, human; details: various concentrations, 72 hours
Protocol: as §3

[9] = tested on: A549 cells; assay: MTS drug sensitivity of MARCKS-knockdown cells; format: cell-based, human; details: stable MARCKS-knockdown A549 cells versus control shRNA; 72 hours
Protocol: as §2
For enforced expression of V5-tagged MARCKS in CL1-0, lung cancer cells were transfected with pcDNA3.1-MARCKS, pcDNA3.1-S159/163A MARCKS or pcDNA3.1 vector using lipofectamine reagent (Invitrogen), according to the manufacturer's protocol. After culturing in medium containing with 400 μg/mL of G418 (Invitrogen) for 2-3 weeks, individual clones were isolated. Clones that expressed the MARCKS cDNA coding region were maintained in medium containing 200 μg/mL of G418 and used for further investigation. Applicants also established a MARCKS-mixed knockdown stable A549 transfectant. […]

Molecule: KKKKKRFDFKKDFKLDGFDFKKNKK [Mut, aspartates-substituted mutant MPS peptide used as control]
- Tumor size [1]: continuous growth
- Suppression of p-MARCKS [2]: no suppression
- Suppression of p-MARCKS ([2]; listed as Mut peptide): not in Mut peptide-treated cells

Molecule: C#Cc1cccc(Nc2ncnc3cc(OCCOC)c(OCCOC)cc23)c1 [erlotinib]
- Cell viability [3]: dose-dependent decrease of cell viability
- Cell viability compared to untreated cells [4]: no significant decrease in cell viability

Molecule: CC(C)C[C@H](NC(=O)[C@H](CCCCN)NC(=O)[C@H](Cc1ccccc1)NC(=O)[C@H](CO)NC(=O)[C@H](CCCCN)NC(=O)[C@H](CCCCN)NC(=O)[C@H](Cc1ccccc1)NC(=O)[C@H](CO)NC(=O)[C@H](Cc1ccccc1)NC(=O)[C@H](CCCNC(=N)N)NC(=O)[C@H](CCCCN)NC(=O)[C@H](CCCCN)NC(=O)[C@H](CCCCN)NC(=O)[C@H](CCCCN)NC(=O)[C@@H](N)CCCCN)C(=O)N[C@@H](CO)C(=O)NCC(=O)N[C@@H](Cc1ccccc1)C(=O)N[C@@H](CO)C(=O)N[C@@H](Cc1ccccc1)C(=O)N[C@@H](CCCCN)C(=O)N[C@@H](CCCCN)C(=O)N[C@@H](CC(N)=O)C(=O)N[C@@H](CCCCN)C(=O)N[C@@H](CCCCN)C(=O)O [MPS] (H-KKKKKRFSFKKSFKLSGFSFKKNKK-OH)
- Cytotoxic / anti-proliferative effect on TKIs resistant cancer cells [5]: cytotoxicity effect of MPS peptide is obvious; also recorded: obvious anti-proliferative effect
- Cytotoxicity in normal human bronchial epithelial cells [6]: did not observe any cytotoxicity
- Tolerability [7]: well tolerated upon systemic administration in mice
- Cytotoxicity in lung cancer cells with low phospho-MARCKS levels [8]: did not observe any cytotoxicity

Molecule: 5′-GAGCGCTTCTCCTTCAAGAA-3′ (expressed or natural sequence) [MARCKS shRNA-c, common MARCKS-specific short hairpin RNA]
- Sensitivity to cisplatin, paclitaxel, erlotinib, dasatinib [9]: enhanced sensitivity to these drugs

Molecule: CC(=O)O[C@H]1C(=O)[C@@]2(C)[C@H]([C@H](OC(=O)c3ccccc3)[C@]3(O)C[C@H](OC(=O)[C@H](O)[C@@H](NC(=O)c4ccccc4)c4ccccc4)C(C)=C1C3(C)C)[C@]1(OC(C)=O)CO[C@@H]1C[C@@H]2O [paclitaxel]
- Cell viability [3]: dose-dependent decrease of cell viability

Molecule: N.N.[Cl][Pt][Cl] [cisplatin]
- Cell viability [3]: dose-dependent decrease of cell viability
